Experimental findings from ChEMBL document CHEMBL1157539, “Thousands of chemical starting points for antimalarial lead identification” (Nature, 2010) are described below.

The subject of the assay is Plasmodium falciparum. Description: GSK_TCMDC: Inhibition of Plasmodium falciparum 3D7 in whole erythrocytes, using parasite LDH activity as an index of growth. In kind it is functional, organism-based. The following applies: Plasmodium falciparum, 3D7.
With `CN1CC=C(c2c[nH]c3ccc(Br)cc23)CC1`, the XC50 is 1190 nM.
The result for `CCOc1ccc(Nc2cc(C)nc(Nc3ccc(OCC)cc3)n2)cc1` reads 869 nM; that for `O=C(NC1CC1)c1ccc(N2CCC(COc3cccc(F)c3)CC2)nc1`, 1240 nM.
The result for `CCN(CC)/C(=N\C(=N)NCCCCCCNC(=N)/N=C(\Nc1ccc(Cl)cc1)N(CC)CC)Nc1ccc(Cl)cc1` reads 927 nM.
The compound `Nc1c(Cl)cc(C(O)CNCCCCCOCCc2ccccc2)cc1C(F)(F)F` (centres undefined) registered an XC50 of 978 nM.
The result for `COc1ccccc1C(=O)N1CCN(Cc2cccs2)CC1` reads 869 nM; that for `COc1ccc(NC(=O)Nc2ccc(Nc3nc(C)cc(N4CCCC4)n3)cc2)cc1`, 135 nM; that for `CC(Cc1ccc(Cl)cc1)Nc1nc(NC2CCCC2)nc(N2CCC(C#N)(c3ccccc3)CC2)n1` (centres undefined), 715 nM.
`CNC(=O)c1ccc2[nH]cc(C3CCN(CC4CCC(NC(=O)/C=C/c5ccc(Cl)c(Cl)c5)CC4)CC3)c2c1` (centres undefined): the XC50 was determined as 1010 nM.
The result for `Oc1ccc(CCNc2nc(NCc3ccccc3Oc3ccc(C(F)(F)F)cc3)nc(N3CCNCC3)n2)cc1` reads 1160 nM; that for `CC(C)CN1CCCN(Cc2cccc(NC(=O)c3cc4ccccc4s3)c2)CC1`, 1770 nM.
The result for `C=C[C@H]1CN(CCCCCCC)CC[C@H]1CC(O)Cc1ccnc2cc(O)c(OC)cc12` (some centres undefined) reads 818 nM.
The same measure for `O=C(N1CCN(c2ccc(C(F)(F)F)cc2[N+](=O)[O-])CC1)C(Cl)(Cl)Cl`: 713 nM.
With `N#C/N=C(\NCCCCCCCCN/C(=N\C#N)NCCSCc1csc(N=C(N)N)n1)NCCCSc1csc(N=C(N)N)n1`, the XC50 came out at 844 nM.
The result for `O=C(NCC1COc2ccccc2O1)c1cnc2c(c1)nc(-c1c[nH]c(-c3ccccc3)n1)n2CCSCc1c(F)cccc1Cl` (centres undefined) reads 959 nM; that for `Cc1cccc(C)c1CNc1ccnc2ccccc12`, 1200 nM.
The result for `c1ccc(COc2ccnc(NCCCOc3cccc(CN4CCCCC4)c3)c2)cc1` reads 994 nM; that for `O=C(Nc1ccc(OC2CCN(Cc3ccc(F)cc3)C2)c(Cl)c1)c1ccc(F)cc1` (centres undefined), 490 nM.
Regarding `Cc1nc2ccc(F)cc2n1C1CCN(C(=O)Cc2ccc(F)c(F)c2)CC1`, the XC50 was determined as 1410 nM.
`CN(C)Cc1cccc2nc(-c3csc(Cc4cc(Cl)ccc4OCc4ccccc4)n3)[nH]c12` yielded an XC50 of 1120 nM.
The result for `COc1cc2nc(N3CCC(CNC(=O)c4ccc(-c5ccc(C(F)(F)F)cc5)cc4)CC3)nc(N)c2cc1OC` reads 127 nM.
`COc1cc2nc(N3CCN(C(=O)c4c(Cl)nsc4-c4ccccc4Cl)CC3)nc(N)c2cc1OC` registered an XC50 of 534 nM.
`N=C(N)c1cc(Br)cc(NC(=O)Nc2cc(Br)cc(C(=N)N)c2)c1` gave an XC50 of 819 nM.
Regarding `CC(C)c1ccc(S(=O)(=O)Nc2cccc(CCN3CCC(N4CCCCC4)CC3)c2)cc1`, the XC50 turned out to be 1120 nM.
The same measure for `CCOc1cc(Cc2cnc(N)nc2N)cc(OCC)c1O`: 1170 nM; for `O=C(NCC1CCN(CCN2CCc3ccc4c(c3C2)OCO4)CC1)c1ccc(-c2ccc(C(F)(F)F)cc2)cc1`: 861 nM.
The result for `Cn1cnc(-c2ccc3c(c2)CCN(CCC2CCC(NC(=O)/C=C/c4ccc(F)cc4)CC2)CC3)c1` (centres undefined) reads 904 nM; that for `Cc1cc2ccc(CNCCc3ccccc3Br)cc2nc1N`, 514 nM; that for `COc1nc2c(N3CCN(CCNCc4ccc5c(n4)NC(=O)CS5)CC3)ccnc2cc1F`, 713 nM.
The same measure for `CCc1ccc(O)c(-c2cc(C(=O)Nc3cccnc3)[nH]n2)c1`: 689 nM; for `Cn1c(Nc2cc(C(C)(C)C)on2)nc2cc(Nc3ccnc(Nc4cccc(CS(C)(=O)=O)c4)n3)ccc21`: 571 nM.
With `CC(C)C[C@@H](/C=N/NC(N)=O)NC(=O)[C@H](CC(C)C)NC(=O)[C@H](CC(C)C)NC(=O)OCc1ccccc1`, the XC50 worked out at 150 nM.
The same measure for `CN(C)CCCOc1ccc(CNCC(C)(C)c2nc(-c3ccc(Cl)c(O)c3)c(-c3ccncc3)[nH]2)cc1`: 708 nM; for `COc1ccc2nccc([C@@H](O)CN3CCC(NCc4nc5c([N+](=O)[O-])cccc5[nH]4)CC3)c2c1`: 705 nM.
